Test results: US12403135B2, “4H-pyrrolo[3,2-c]pyridin-4-one derivatives” (Bayer Aktiengesellschaft, priority 2019, dated 2025)
Like-named read-outs stand apart in the source and are kept apart here.

Tests used:
Type in all cases: cell-based
[1] = tested on: Ba/F3-EGFR-delLREA cells (EGFR del19/delLREA (746-750), E746_A750del); experiment: BA/F3 EGFR del19/delLREA (746-750) (E746_A750del) cell survival assay, Cell Titer-Glo
Description: (§1) Plates were incubated at 37° C. for 48 h. Retrovirus was harvested by filtering the media supernatant through a 0.45 μm filter.
(§2) Ba/F3 cells purchased from DSMZ were grown in RPMI+10% FBS+10 ng/mL IL-3 and infected with filtered retroviral supernatant at a 1:2 dilution. Polybrene was added to a concentration of 8 μg/mL, plates were spun for 90 min, and incubated overnight at 37° C. 2 μg/mL puromycin was added to the infected cells 24 h after infection and cells were continually grown in the presence of puromycin and 10 ng/mL IL-3. Following stably expressing Ba/F3 cell lines were generated: Ba/F3-EGFR-L858R, Ba/F3-EGFR-delLREA, (Ba/F3-vector-control).
(§3) For cell survival assays, Ba/F3 cells were grown to a density of 1-2 million cells per mL, spun down and resuspended in media without IL-3, and replated at a concentration 200,000-500,000 cells per mL. The cells ectopically expressing pBABEpuro empty vector were plated with 10 ng/mL IL-3.
(§4) 2 days later, cells were plated in 50 μL in a 384 well plate at a concentration of 4000 cells per well for cells assayed in the absence of IL-3 and 2000 cells per well for cells (pBABE puro empty vector) assayed in the presence of IL-3. 100 nL of compound was added to each well using a 100 nL pin head, and plates were incubated at 37° C. for 48 h.
(§5) Cell viability was measured by adding 20 μL of Cell Titer-Glo Luminescent Cell Viability Reagent diluted 1:3 in PBS. Plates were sealed with Perkin Elmer Top-Seal, inverted several times to mix, and immediately centrifuged at 1000 rpm for 2 min. Plates were incubated in low light conditions for 8-10 min and luminescence was measured.

Ba/F3-EGFR-L858R cells = Ba/F3-EGFR-L858R cells (Homo sapiens, UniProt P00533, L858R, cells depend on it); experiment: BA/F3 EGFR L858R cell survival assay, Cell Titer-Glo; settings: read-out: BA/F3 (EGFR L858R) IC50
Ba/F3-EGFR-L858R cells, sequence (P00533 whole entry L858R): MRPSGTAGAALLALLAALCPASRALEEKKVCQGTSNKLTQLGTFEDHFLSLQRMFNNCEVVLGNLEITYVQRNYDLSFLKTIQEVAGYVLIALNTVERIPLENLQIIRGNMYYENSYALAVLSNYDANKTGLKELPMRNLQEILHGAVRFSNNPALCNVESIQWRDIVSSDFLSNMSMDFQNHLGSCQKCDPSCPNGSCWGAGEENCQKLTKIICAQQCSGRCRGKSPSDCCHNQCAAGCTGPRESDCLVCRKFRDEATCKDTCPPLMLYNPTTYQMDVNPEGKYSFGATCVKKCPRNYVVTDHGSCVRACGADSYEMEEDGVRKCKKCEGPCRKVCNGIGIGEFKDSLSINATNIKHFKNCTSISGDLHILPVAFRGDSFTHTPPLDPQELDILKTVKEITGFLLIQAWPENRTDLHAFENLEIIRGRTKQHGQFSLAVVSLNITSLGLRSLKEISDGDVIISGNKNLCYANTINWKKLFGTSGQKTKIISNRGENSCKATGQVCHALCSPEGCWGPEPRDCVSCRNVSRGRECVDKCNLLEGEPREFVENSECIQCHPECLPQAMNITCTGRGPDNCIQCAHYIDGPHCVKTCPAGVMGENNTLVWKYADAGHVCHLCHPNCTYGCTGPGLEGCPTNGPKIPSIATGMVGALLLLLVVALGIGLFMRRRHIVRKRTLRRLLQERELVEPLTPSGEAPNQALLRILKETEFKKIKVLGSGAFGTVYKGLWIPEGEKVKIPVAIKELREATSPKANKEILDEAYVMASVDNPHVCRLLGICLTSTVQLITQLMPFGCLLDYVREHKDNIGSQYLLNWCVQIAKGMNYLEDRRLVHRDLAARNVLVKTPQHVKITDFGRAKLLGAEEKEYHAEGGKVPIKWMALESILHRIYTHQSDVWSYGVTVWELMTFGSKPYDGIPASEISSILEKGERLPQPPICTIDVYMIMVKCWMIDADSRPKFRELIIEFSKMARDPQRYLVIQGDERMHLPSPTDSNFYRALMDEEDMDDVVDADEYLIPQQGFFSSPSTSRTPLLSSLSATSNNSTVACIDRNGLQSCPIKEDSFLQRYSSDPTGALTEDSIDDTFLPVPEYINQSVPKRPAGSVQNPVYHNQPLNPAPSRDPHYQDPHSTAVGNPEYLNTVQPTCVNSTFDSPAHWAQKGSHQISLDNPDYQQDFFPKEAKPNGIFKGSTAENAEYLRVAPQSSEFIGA
Description: as §1, §2, §3, §4, §5

[2] = target: Ba/F3-EGFR-D770_N771 insNPG cells (Homo sapiens, UniProt P00533, INS772GNP, cells depend on it); experiment: BA/F3 (insNPG) proliferation, EGFR Exon20 insertion mutation; settings: Table 9; EGFR Exon20 insertion mutations; read-out: BA/F3 (insNPG) IC50
Ba/F3-EGFR-D770_N771 insNPG cells, sequence (P00533 with tags, fused parts or gaps INS772GNP): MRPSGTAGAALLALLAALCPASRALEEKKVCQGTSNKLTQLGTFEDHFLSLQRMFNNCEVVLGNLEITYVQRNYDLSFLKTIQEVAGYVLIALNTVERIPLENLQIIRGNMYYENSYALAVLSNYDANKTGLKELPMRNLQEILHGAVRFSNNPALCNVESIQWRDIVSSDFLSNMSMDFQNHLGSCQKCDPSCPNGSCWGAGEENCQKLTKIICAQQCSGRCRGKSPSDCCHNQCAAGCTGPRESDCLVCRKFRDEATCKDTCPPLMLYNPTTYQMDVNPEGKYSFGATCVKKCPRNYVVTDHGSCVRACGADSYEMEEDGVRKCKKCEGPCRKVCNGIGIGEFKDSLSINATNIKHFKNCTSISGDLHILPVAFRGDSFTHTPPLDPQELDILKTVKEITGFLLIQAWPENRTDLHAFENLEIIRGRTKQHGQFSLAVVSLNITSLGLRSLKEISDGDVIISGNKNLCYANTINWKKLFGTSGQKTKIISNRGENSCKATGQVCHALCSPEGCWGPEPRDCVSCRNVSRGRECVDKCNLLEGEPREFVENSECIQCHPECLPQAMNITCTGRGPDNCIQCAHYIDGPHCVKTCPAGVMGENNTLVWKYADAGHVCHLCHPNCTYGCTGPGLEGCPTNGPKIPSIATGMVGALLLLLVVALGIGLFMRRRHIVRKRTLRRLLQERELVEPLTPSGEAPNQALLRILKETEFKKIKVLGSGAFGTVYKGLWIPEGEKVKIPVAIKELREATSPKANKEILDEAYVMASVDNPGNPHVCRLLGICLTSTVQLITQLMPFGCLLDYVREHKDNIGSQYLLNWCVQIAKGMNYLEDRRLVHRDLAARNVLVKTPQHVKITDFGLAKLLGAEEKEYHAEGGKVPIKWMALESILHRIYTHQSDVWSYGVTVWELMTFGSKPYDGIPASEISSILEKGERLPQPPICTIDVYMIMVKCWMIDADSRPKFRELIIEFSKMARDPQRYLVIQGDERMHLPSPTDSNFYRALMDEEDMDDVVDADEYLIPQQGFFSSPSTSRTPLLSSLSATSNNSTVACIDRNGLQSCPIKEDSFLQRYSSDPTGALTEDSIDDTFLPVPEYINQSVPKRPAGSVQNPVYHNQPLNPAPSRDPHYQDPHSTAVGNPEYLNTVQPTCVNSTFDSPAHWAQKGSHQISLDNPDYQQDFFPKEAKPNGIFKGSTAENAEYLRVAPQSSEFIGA
Description: as §1
as §2, with “Ba/F3-EGFR-V769_D770 insASV, Ba/F3-EGFR-D770_N771 insNPG, Ba/F3-EGFR-N771_P772 insH, Ba/F3-EGFR-H773_V774 insNPH, Ba/F3-EGFR-D770_N771 insSVD C797S, Ba/F3-EGFR-E746_A750del C797S, Ba/F3-EGFR-L858R C797S, Ba/F3-EGFR L861Q and Ba/F3-ERBB2-A775_G776insYVMA” for “Ba/F3-EGFR-L858R, Ba/F3-EGFR-delLREA,”

[3] = target: Ba/F3-EGFR-V769_D770 insASV cells (Homo sapiens, UniProt P00533, DUP767-769, cells depend on it); experiment: BA/F3 (ASV) proliferation, EGFR Exon20 insertion mutation; settings: Table 9; EGFR Exon20 insertion mutations; read-out: BA/F3 (ASV) IC50
Ba/F3-EGFR-V769_D770 insASV cells, sequence (P00533 with tags, fused parts or gaps DUP767-769): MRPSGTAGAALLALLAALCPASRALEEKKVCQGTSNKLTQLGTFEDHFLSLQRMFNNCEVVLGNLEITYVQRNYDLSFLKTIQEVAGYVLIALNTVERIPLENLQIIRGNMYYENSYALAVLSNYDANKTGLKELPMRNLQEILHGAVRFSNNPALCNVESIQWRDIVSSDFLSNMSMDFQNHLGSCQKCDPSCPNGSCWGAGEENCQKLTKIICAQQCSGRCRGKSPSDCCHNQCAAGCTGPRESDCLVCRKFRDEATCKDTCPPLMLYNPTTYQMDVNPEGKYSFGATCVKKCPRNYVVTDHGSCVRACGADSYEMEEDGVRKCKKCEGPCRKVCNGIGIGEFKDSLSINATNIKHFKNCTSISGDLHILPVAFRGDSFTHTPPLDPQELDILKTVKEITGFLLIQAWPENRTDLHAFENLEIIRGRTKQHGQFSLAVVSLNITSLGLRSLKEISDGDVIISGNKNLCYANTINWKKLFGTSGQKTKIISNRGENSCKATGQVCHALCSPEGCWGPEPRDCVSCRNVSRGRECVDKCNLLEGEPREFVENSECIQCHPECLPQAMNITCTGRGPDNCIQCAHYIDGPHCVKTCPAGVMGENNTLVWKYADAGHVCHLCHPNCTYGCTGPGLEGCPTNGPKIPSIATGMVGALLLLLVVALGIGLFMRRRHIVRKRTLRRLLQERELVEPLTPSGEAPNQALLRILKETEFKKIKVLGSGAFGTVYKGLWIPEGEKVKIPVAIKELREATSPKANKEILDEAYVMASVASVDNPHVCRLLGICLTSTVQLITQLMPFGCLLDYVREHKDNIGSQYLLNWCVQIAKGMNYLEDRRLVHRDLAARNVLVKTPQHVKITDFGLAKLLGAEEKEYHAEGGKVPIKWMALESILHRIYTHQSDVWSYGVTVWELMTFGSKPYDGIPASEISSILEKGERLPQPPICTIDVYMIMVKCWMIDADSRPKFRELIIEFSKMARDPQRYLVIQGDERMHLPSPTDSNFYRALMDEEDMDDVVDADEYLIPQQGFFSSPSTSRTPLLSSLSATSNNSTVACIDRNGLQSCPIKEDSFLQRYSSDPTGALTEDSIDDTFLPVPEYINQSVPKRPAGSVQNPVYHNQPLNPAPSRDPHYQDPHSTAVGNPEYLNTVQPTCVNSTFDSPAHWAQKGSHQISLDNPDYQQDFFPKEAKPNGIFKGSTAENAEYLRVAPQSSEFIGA
Description: as §1
as §2, with “Ba/F3-EGFR-V769_D770 insASV, Ba/F3-EGFR-D770_N771 insNPG, Ba/F3-EGFR-N771_P772 insH, Ba/F3-EGFR-H773_V774 insNPH, Ba/F3-EGFR-D770_N771 insSVD C797S, Ba/F3-EGFR-E746_A750del C797S, Ba/F3-EGFR-L858R C797S, Ba/F3-EGFR L861Q and Ba/F3-ERBB2-A775_G776insYVMA” for “Ba/F3-EGFR-L858R, Ba/F3-EGFR-delLREA,”

Ba/F3-EGFR L861Q cells = experiment: BA/F3 (EGFR L861Q) proliferation, uncommon EGFR mutation; settings: Table 10, classical activating and uncommon EGFR mutations
Description: as §1
as §2, with “Ba/F3-EGFR-V769_D770 insASV, Ba/F3-EGFR-D770_N771 insNPG, Ba/F3-EGFR-N771_P772 insH, Ba/F3-EGFR-H773_V774 insNPH, Ba/F3-EGFR-D770_N771 insSVD C797S, Ba/F3-EGFR-E746_A750del C797S, Ba/F3-EGFR-L858R C797S, Ba/F3-EGFR L861Q and Ba/F3-ERBB2-A775_G776insYVMA” for “Ba/F3-EGFR-L858R, Ba/F3-EGFR-delLREA,”

[4] = tested on: Ba/F3-EGFR-D770_N771 insSVD C797S cells; experiment: BA/F3 (EGFR D770_N771 insSVD C797S) proliferation, acquired resistance; settings: Ba/F3 EGFR-D770-N771ins_SVD; Table 11; acquired resistance space
Description: as §1
as §2, with “Ba/F3-EGFR-V769_D770 insASV, Ba/F3-EGFR-D770_N771 insNPG, Ba/F3-EGFR-N771_P772 insH, Ba/F3-EGFR-H773_V774 insNPH, Ba/F3-EGFR-D770_N771 insSVD C797S, Ba/F3-EGFR-E746_A750del C797S, Ba/F3-EGFR-L858R C797S, Ba/F3-EGFR L861Q and Ba/F3-ERBB2-A775_G776insYVMA” for “Ba/F3-EGFR-L858R, Ba/F3-EGFR-delLREA,”

[5] = tested on: Ba/F3-EGFR-E746_A750del C797S cells; experiment: BA/F3 (EGFR E746_A750del C797S) proliferation, acquired resistance; settings: Table 11, acquired resistance space
Description: as §1
as §2, with “Ba/F3-EGFR-V769_D770 insASV, Ba/F3-EGFR-D770_N771 insNPG, Ba/F3-EGFR-N771_P772 insH, Ba/F3-EGFR-H773_V774 insNPH, Ba/F3-EGFR-D770_N771 insSVD C797S, Ba/F3-EGFR-E746_A750del C797S, Ba/F3-EGFR-L858R C797S, Ba/F3-EGFR L861Q and Ba/F3-ERBB2-A775_G776insYVMA” for “Ba/F3-EGFR-L858R, Ba/F3-EGFR-delLREA,”

[6] = tested on: Ba/F3-EGFR-L858R C797S cells; experiment: BA/F3 (EGFR L858R C797S) proliferation, acquired resistance; settings: Table 11, acquired resistance space
Description: as §1
as §2, with “Ba/F3-EGFR-V769_D770 insASV, Ba/F3-EGFR-D770_N771 insNPG, Ba/F3-EGFR-N771_P772 insH, Ba/F3-EGFR-H773_V774 insNPH, Ba/F3-EGFR-D770_N771 insSVD C797S, Ba/F3-EGFR-E746_A750del C797S, Ba/F3-EGFR-L858R C797S, Ba/F3-EGFR L861Q and Ba/F3-ERBB2-A775_G776insYVMA” for “Ba/F3-EGFR-L858R, Ba/F3-EGFR-delLREA,”

[7] = target: Ba/F3-ERBB2-A775_G776insYVMA cells (Homo sapiens, UniProt P04626, DUP772-775, cells depend on it); experiment: BA/F3 (ERBB2 A775_G776 insYVMA) proliferation; settings: Table 12; read-out: BA/F3 (ERBB2 A775_G776 insYVMA) IC50
Ba/F3-ERBB2-A775_G776insYVMA cells, sequence (P04626 with tags, fused parts or gaps DUP772-775): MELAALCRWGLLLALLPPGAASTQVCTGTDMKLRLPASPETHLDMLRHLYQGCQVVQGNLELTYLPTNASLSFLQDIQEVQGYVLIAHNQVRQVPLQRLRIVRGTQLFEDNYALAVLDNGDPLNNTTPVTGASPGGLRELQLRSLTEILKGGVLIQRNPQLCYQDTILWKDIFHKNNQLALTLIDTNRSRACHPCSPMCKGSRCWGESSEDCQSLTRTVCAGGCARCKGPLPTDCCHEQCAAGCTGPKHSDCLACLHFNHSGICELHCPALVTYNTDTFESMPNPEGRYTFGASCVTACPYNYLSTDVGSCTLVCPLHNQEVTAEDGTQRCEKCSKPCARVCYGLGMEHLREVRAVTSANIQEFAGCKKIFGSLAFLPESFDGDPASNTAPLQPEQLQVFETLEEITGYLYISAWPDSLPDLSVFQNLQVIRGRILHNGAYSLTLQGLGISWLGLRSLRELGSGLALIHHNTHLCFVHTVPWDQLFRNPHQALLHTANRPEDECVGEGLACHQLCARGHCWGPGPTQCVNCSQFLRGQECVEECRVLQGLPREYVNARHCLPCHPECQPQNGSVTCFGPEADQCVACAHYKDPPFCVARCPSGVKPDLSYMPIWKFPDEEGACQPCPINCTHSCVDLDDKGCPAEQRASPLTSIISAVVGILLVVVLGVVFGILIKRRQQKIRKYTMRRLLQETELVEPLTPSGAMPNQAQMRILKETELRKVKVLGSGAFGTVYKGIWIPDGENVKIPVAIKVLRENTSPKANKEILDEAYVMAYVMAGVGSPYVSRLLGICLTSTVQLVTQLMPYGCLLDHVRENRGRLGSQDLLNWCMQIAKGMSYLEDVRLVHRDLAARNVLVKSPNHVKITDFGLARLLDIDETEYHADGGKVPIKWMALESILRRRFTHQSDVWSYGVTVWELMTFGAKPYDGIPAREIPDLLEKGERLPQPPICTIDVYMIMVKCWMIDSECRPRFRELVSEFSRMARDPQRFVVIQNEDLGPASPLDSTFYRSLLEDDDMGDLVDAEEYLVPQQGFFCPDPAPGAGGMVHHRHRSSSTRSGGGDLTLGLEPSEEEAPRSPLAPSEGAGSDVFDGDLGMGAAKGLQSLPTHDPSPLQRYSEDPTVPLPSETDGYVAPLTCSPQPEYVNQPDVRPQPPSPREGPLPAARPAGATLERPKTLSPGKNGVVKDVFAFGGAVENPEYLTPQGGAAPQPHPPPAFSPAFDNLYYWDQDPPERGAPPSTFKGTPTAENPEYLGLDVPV
Description: as §1
as §2, with “Ba/F3-EGFR-V769_D770 insASV, Ba/F3-EGFR-D770_N771 insNPG, Ba/F3-EGFR-N771_P772 insH, Ba/F3-EGFR-H773_V774 insNPH, Ba/F3-EGFR-D770_N771 insSVD C797S, Ba/F3-EGFR-E746_A750del C797S, Ba/F3-EGFR-L858R C797S, Ba/F3-EGFR L861Q and Ba/F3-ERBB2-A775_G776insYVMA” for “Ba/F3-EGFR-L858R, Ba/F3-EGFR-delLREA,”

PC9 cells (EGFRex19del) = experiment: PC9 cell proliferation, Cell Titer Glo, 72 h
Description: (§6) PC9 cells were purchased from ATCC. 400 PC9 cells per well were seeded in growth medium (DMEM, 10% FCS) in a 384-well plate (CORNING #3571). Seed reference plate for time zero determination on the same day. All plates were incubated overnight at 37° C. After 24 hours, test compound were added in 7-step dilution using HP Compound printer and incubated at 37° C. for 72 h. After 3 days, 30 μL/well CTG solution (Promega Cell Titer Glo solution; catalog #G755B and G756B) were added to each well, incubated for 30 minutes and the plate were read on PheraStar. Proliferation is calculated after subtracting time zero luminescence values from day 4 values and comparing to untreated wells. The IC50 values were determined using the four parameter fit.

[8] = tested on: HCC-827 cells (EGFRex19del); experiment: HCC-827 cell proliferation, Cell Titer Glo, 72 h; settings: Homo sapiens, HCC827, Table 12, several values per example
Description: as §6, with “HCC-827 cells” for “PC9 cells”, “[…]” for “400 PC9”, “medium (RPMI1640,” for “medium (DMEM,”, “wells.” for “wells. The IC50 values were determined using the four parameter fit.”
The IC50 values were determined using the four parameter fit.

[9] = target: Ba/F3-EGFR-WT cells (BA/F3 wild type EGFR) (Homo sapiens, UniProt P00533); experiment: BA/F3 (wild type) proliferation assay, Cell Titer-Glo; settings: Table 7; plated with 10 ng/mL EGF, without IL-3, 48 h; read-out: BA/F3 (wild type) IC50
Description: as §1
as §2, with “Ba/F3-EGFR-WT.” for “Ba/F3-EGFR-L858R, Ba/F3-EGFR-delLREA, (Ba/F3-vector-control).”
For cell survival assays, Ba/F3 cells were grown to a density of 1-2 million cells per mL, spun down and resuspended in media without IL-3, and replated at a concentration 200,000-500,000 cells per mL. The cells ectopically expressing WT EGFR were plated with 10 ng/mL Millipore Culture grade EGF.
24 hours later, cells were plated in 30 μL in a 384 well plate at a concentration of 3200 cells per well for cells assayed in the absence of IL-3. 100 nL of compound was added to each well using a 100 nL pin head, and plates were incubated at 37° C. for 48 h.
as §5, with “30” for “20”, “Reagent.” for “Reagent diluted 1:3 in PBS.”

[10] = Table 10, classical activating and uncommon EGFR mutations, read-out: BA/F3 (EGFR E746_A750del) IC50
[11] = Table 10, classical activating and uncommon EGFR mutations

GI50 [2] | GI50 [3] | IC50 (Ba/F3-EGFR L861Q cells) | IC50 [4] | IC50 [5] | IC50 [6] | GI50 [7] | IC50 (PC9 cells (EGFRex19del); Homo sapiens, PC-9, 72 h, Table 12, several values per example) | IC50 (PC9 cells (EGFRex19del); Table 12, several values per example) | GI50 [9] | Compound | IC50 [1, 10] | GI50 (Ba/F3-EGFR-L858R cells; [11]) | IC50 (PC9 cells (EGFRex19del); Homo sapiens, PC-9, Table 12, several values per example) | IC50 [8] | IC50 ([1]; Table 8, without IL-3, 48 h, read-out: BA/F3 (EGFR del19/delREA (746-750) IC50)) | GI50 (Ba/F3-EGFR-L858R cells; Table 8, without IL-3, 48 h)
0.115 µM | 0.284 µM | 0.177 µM | 0.198 µM | 0.00301 µM | 0.00783 µM | 0.231 µM | < 0.03 µM | 0.0513 µM | – | Cc1c(F)cccc1Nc1c(-c2ccncc2OC[C@@H]2CCCN2C)[nH]c2c1C(=O)NCC2 [Example 49, 3-(3-fluoro-2-methylanilino)-2-(3-{[(2S)-1-methylpyrrolidin-2-yl]methoxy}pyridin-4-yl)-1,5,6,7-tetrahydro-4H-pyrrolo[3,2-c]pyridin-4-one] | 0.0116 µM | 0.0227 µM | – | – | – | –
– | – | – | – | – | – | – | – | – | 0.87 µM | COC(C)(C)COc1cnccc1-c1[nH]c2c(c1Nc1cccc(F)c1OC(F)F)C(=O)NCC2 [Example 19, 3-{[2-(difluoromethoxy)-3-fluorophenyl]amino}-2-[3-(2-methoxy-2-methylpropoxy)pyridin-4-yl]-1,5,6,7-tetrahydro-4H-pyrrolo[3,2-c]pyridin-4-one] | – | – | – | – | 0.00032 µM | 0.0047 µM
0.0262 µM | 0.0304 µM | 0.0573 µM | 0.0494 µM | 0.00142 µM | 0.00334 µM | 0.0411 µM | – | – | – | COc1c(Cl)cccc1Nc1c(-c2ccncc2OCC(C)(C)OC)[nH]c2c1C(=O)NCC2 [Example 33, 3-(3-chloro-2-methoxyanilino)-2-[3-(2-methoxy-2-methylpropoxy)pyridin-4-yl]-1,5,6,7-tetrahydro-4H-pyrrolo[3,2-c]pyridin-4-one] | 0.00296 µM | 0.00316 µM | – | – | – | –

Compound | GI50 [2] | GI50 [3] | IC50 (Ba/F3-EGFR L861Q cells) | IC50 [4] | IC50 [5] | IC50 [6] | GI50 [7] | IC50 (PC9 cells (EGFRex19del); Homo sapiens, PC-9, 72 h, Table 12, several values per example) | IC50 (PC9 cells (EGFRex19del); Table 12, several values per example) | GI50 [9] | IC50 [1, 10] | GI50 (Ba/F3-EGFR-L858R cells; [11]) | IC50 (PC9 cells (EGFRex19del); Homo sapiens, PC-9, Table 12, several values per example) | IC50 [8] | IC50 ([1]; Table 8, without IL-3, 48 h, read-out: BA/F3 (EGFR del19/delREA (746-750) IC50)) | GI50 (Ba/F3-EGFR-L858R cells; Table 8, without IL-3, 48 h)
COc1c(Cl)cccc1Nc1c(-c2ccncc2OC[C@H]2CCCO2)[nH]c2c1C(=O)NCC2 [Example 67, 3-(3-chloro-2-methoxyanilino)-2-(3-{[(2R)-oxolan-2-yl]methoxy}pyridin-4-yl)-1,5,6,7-tetrahydro-4H-pyrrolo[3,2-c]pyridin-4-one] | 0.0131 µM | 0.0128 µM | 0.019 µM | 0.0238 µM | 0.000387 µM | 0.00182 µM | 0.0115 µM | – | – | – | 0.000643 µM | 0.00148 µM | 0.00177 µM | < 0.003 µM | – | –
